According to paper PMC5909127, “Optimization of a “bump-and-hole” approach to allele-selective BET bromodomain inhibition” (Chemical Science, 2018):

Key:
[1] = biological target: WT somatic BET bromodomains; experiment: ITC; conditions: for ITC pKd ± SD WT: mean and SD of all somatic bromodomains
in vitro [2] = conditions: BALB/c, mouse, plasma, pH 7.4
BRD3 BD2 WT [3] = biological target: T1, BRD3 BD2 WT (Homo sapiens, UniProt Q15059); experiment: ITC; assay type: binding; conditions: for Kd: 30°C, read-out: Kd BRD3 BD2 WT
T1 sequence (Q15059 306-416): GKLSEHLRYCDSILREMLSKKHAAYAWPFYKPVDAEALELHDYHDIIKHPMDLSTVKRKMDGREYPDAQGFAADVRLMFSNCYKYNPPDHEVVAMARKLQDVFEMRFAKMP

[4] = biological target: WT BET bromodomains (BD1 and BD2 of BRD2, BRD3 and BRD4); experiment: competitive AlphaLISA (Bio-JQ1 displacement); assay type: binding, human; conditions: mean and SD of all somatic bromodomains; active enantiomer concentration
BRD2 BD2 WT [5] = biological target: T2, BRD2 BD2 WT (Homo sapiens, UniProt P25440); experiment: ITC; assay type: binding; conditions: for Kd: 30°C, read-out: Kd BRD2 BD2 WT
T2 sequence (P25440 344-455): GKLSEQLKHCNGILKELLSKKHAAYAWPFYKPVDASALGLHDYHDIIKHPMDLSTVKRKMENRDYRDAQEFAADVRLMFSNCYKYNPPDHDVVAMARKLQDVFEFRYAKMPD

BRD2 BD1 L/V [6] = biological target: T3, BRD2 BD1 L/V (Homo sapiens, UniProt P25440, L110V); experiment: ITC; assay type: binding; conditions: for ΔH BRD2 BD1 L/V / Kd: ITC; for Kd: 30°C, read-out: Kd BRD2 BD1 L/V
T3 sequence (P25440 71-176 L110V limits assumed): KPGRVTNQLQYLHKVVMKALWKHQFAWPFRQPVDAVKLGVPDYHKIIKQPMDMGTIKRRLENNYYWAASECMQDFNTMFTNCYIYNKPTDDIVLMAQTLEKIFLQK

BRD3 BD1 L/V [7] = biological target: T4, BRD3 BD1 L/V (Homo sapiens, UniProt Q15059, L70V); experiment: competitive AlphaLISA; assay type: binding; conditions: read-out: AlphaLISA pIC50 Value BRD3 BD1 L/V (converted)
T4 sequence (Q15059 24-144 L70V limits assumed): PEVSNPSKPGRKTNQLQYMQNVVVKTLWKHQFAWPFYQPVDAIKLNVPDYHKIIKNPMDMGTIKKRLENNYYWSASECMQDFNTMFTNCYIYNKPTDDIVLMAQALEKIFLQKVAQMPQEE

BRD3 BD2 WT [8] = biological target: T1, BRD3 BD2 WT; experiment: competitive AlphaLISA; assay type: binding; conditions: read-out: AlphaLISA pIC50 Value BRD3 BD2 WT (converted)
[9] = test system: L/V somatic BET bromodomains; experiment: ITC; conditions: for ITC pKd ± SD Δ: L/V minus WT
BRD2 BD1 WT [10] = biological target: T5, BRD2 BD1 WT (Homo sapiens, UniProt P25440); experiment: ITC; assay type: binding; conditions: for Kd: 30°C, read-out: Kd BRD2 BD1 WT
T5 sequence (P25440 71-176): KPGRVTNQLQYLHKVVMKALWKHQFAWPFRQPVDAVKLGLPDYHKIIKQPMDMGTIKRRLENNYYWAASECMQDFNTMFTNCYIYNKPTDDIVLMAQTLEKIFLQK

BRDT BD2 L/V = BRDT BD2 L/V (Homo sapiens, UniProt Q58F21, L306V); experiment: competitive AlphaLISA; assay type: binding; conditions: read-out: AlphaLISA pIC50 Value BRDT BD2 L/V (converted)
BRD3 BD1 WT [11] = biological target: T6, BRD3 BD1 WT (Homo sapiens, UniProt Q15059); experiment: competitive AlphaLISA; assay type: binding; conditions: read-out: AlphaLISA pIC50 Value BRD3 BD1 WT (converted)
T6 sequence (Q15059 24-144): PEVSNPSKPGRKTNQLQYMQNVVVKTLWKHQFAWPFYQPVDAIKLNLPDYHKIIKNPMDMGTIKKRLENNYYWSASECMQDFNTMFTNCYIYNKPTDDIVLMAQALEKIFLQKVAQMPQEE

BRD3 BD1 L/V [12] = biological target: T4, BRD3 BD1 L/V; experiment: ITC; assay type: binding; conditions: for ΔH BRD3 BD1 L/V / Kd: ITC; for Kd: 30°C, read-out: Kd BRD3 BD1 L/V
BRD2 BD2 L/V [13] = biological target: T7, BRD2 BD2 L/V (Homo sapiens, UniProt P25440, L383V); experiment: ITC; assay type: binding; conditions: for ΔH BRD2 BD2 L/V / Kd: ITC; for Kd: 30°C, read-out: Kd BRD2 BD2 L/V
T7 sequence (P25440 344-455 L383V): as the sequence (P25440 344-455) above, with L40V counted along it

[14] = test system: L/V BET bromodomains (BD1 and BD2 of BRD2, BRD3 and BRD4); experiment: competitive AlphaLISA (Bio-JQ1 displacement); assay type: binding, human; conditions: for AlphaLISA pIC50 ± SD Δ: L/V minus WT
BRD2 BD1 L/V [15] = biological target: T3, BRD2 BD1 L/V; experiment: competitive AlphaLISA; assay type: binding; conditions: read-out: AlphaLISA pIC50 Value BRD2 BD1 L/V (converted)
BRD2 BD2 WT [16] = biological target: T2, BRD2 BD2 WT; experiment: competitive AlphaLISA; assay type: binding; conditions: read-out: AlphaLISA pIC50 Value BRD2 BD2 WT (converted)
in vitro [17] = conditions: PAMPA, pH 7.4
BRD3 BD1 WT [18] = biological target: T6, BRD3 BD1 WT; experiment: ITC; assay type: binding; conditions: for Kd: 30°C, read-out: Kd BRD3 BD1 WT
BRDT BD2 WT = BRDT BD2 WT (Homo sapiens, UniProt Q58F21); experiment: competitive AlphaLISA; assay type: binding; conditions: read-out: AlphaLISA pIC50 Value BRDT BD2 WT (converted)
BRD3 BD2 L/V [19] = biological target: T8, BRD3 BD2 L/V (Homo sapiens, UniProt Q15059, L345V); experiment: ITC; assay type: binding; conditions: for ΔH BRD3 BD2 L/V / Kd: ITC; for Kd: 30°C, read-out: Kd BRD3 BD2 L/V
T8 sequence (Q15059 306-416 L345V limits assumed): as the sequence (Q15059 306-416) above, with L40V counted along it

BRD3 BD2 L/V [20] = biological target: T8, BRD3 BD2 L/V; experiment: competitive AlphaLISA; assay type: binding; conditions: read-out: AlphaLISA pIC50 Value BRD3 BD2 L/V (converted)
BRD2 BD1 WT [21] = biological target: T5, BRD2 BD1 WT; experiment: competitive AlphaLISA; assay type: binding; conditions: read-out: AlphaLISA pIC50 Value BRD2 BD1 WT (converted)
BRD4 BD1 WT [22] = biological target: T9, BRD4 BD1 WT (Homo sapiens, UniProt O60885); experiment: ITC; assay type: binding; conditions: ITC, 30°C; read-out: Kd BRD4 BD1 WT
BRD2 BD2 L/V [23] = biological target: T7, BRD2 BD2 L/V; experiment: competitive AlphaLISA; assay type: binding; conditions: read-out: AlphaLISA pIC50 Value BRD2 BD2 L/V (converted)
BRD4 BD2 L/V [24] = biological target: T10, BRD4 BD2 L/V (Homo sapiens, UniProt O60885, L387V); experiment: competitive AlphaLISA; assay type: binding; conditions: read-out: AlphaLISA pIC50 Value BRD4 BD2 L/V (converted)
BRD4 BD1 L/V [25] = biological target: T11, BRD4 BD1 L/V (Homo sapiens, UniProt O60885, L94V); experiment: ITC; assay type: binding
BRD4 BD1 WT [26] = biological target: T9, BRD4 BD1 WT; experiment: competitive AlphaLISA; assay type: binding; conditions: read-out: AlphaLISA pIC50 Value BRD4 BD1 WT (converted)
BRD4 BD2 WT [27] = biological target: T12, BRD4 BD2 WT (Homo sapiens, UniProt O60885); experiment: competitive AlphaLISA; assay type: binding; conditions: read-out: AlphaLISA pIC50 Value BRD4 BD2 WT (converted)
BRDT BD1 WT = BRDT BD1 WT (Homo sapiens, UniProt Q58F21); experiment: competitive AlphaLISA; assay type: binding; conditions: read-out: AlphaLISA pIC50 Value BRDT BD1 WT (converted)
BRD4 BD2 L/V [28] = biological target: T10, BRD4 BD2 L/V; experiment: ITC; assay type: binding
BRD4 BD1 L/V [29] = biological target: T11, BRD4 BD1 L/V; experiment: competitive AlphaLISA; assay type: binding; conditions: read-out: AlphaLISA pIC50 Value BRD4 BD1 L/V (converted)
BRD4 BD2 WT [30] = biological target: T12, BRD4 BD2 WT; experiment: ITC; assay type: binding; conditions: ITC, 30°C; read-out: Kd BRD4 BD2 WT

Structure (SMILES): CCNC(=O)[C@H](C)[C@@H]1N=C(c2ccc(Cl)cc2)c2cc(OC)ccc2-n2c(C)nnc21 (relative stereo) [Compound 16]
- ITC pKd ± SD WT [1]: 5.6 ± 0.3
- half-life at 50 µM (in vitro [2]): > 3 h
- ΔH BRD3 BD2 WT (BRD3 BD2 WT [3]; ITC): -6.0 kcal/mol
- N BRD3 BD2 WT (BRD3 BD2 WT [3]; ITC stoichiometry): 0.88
- Kd (BRD3 BD2 WT [3]; ITC): 1500 nM
- AlphaLISA pIC50 ± SD WT [4]: 5.3 ± 0.2
- ΔH BRD2 BD2 WT (BRD2 BD2 WT [5]; ITC): -3.9 kcal/mol
- N BRD2 BD2 WT (BRD2 BD2 WT [5]; ITC stoichiometry): 0.65
- Kd (BRD2 BD2 WT [5]; ITC): 2400 nM
- ΔH BRD2 BD1 L/V (BRD2 BD1 L/V [6]): -16.3 kcal/mol
- Kd (BRD2 BD1 L/V [6]): 120 nM
- IC50 (BRD3 BD1 L/V [7]): 100 nM
- IC50 (BRD3 BD2 WT [8]): 3980 nM
- ITC pKd ± SD Δ [9]: 1.3 ± 0.3
- ΔH BRD2 BD1 WT (BRD2 BD1 WT [10]; ITC): -4.5 kcal/mol
- N BRD2 BD1 WT (BRD2 BD1 WT [10]; ITC stoichiometry): 0.94
- Kd (BRD2 BD1 WT [10]; ITC): 2200 nM
- IC50 (BRDT BD2 L/V): 398 nM
- IC50 (BRD3 BD1 WT [11]): 2000 nM
- ΔH BRD3 BD1 L/V (BRD3 BD1 L/V [12]): -19.0 kcal/mol
- Kd (BRD3 BD1 L/V [12]): 60 nM
- ΔH BRD2 BD2 L/V (BRD2 BD2 L/V [13]): -9.9 kcal/mol
- Kd (BRD2 BD2 L/V [13]): 190 nM
- AlphaLISA pIC50 ± SD Δ [14]: 1.4 ± 0.2
- IC50 (BRD2 BD1 L/V [15]): 398 nM
- IC50 (BRD2 BD2 WT [16]): 5010 nM
- Papp (in vitro [17]): 2.6 ×10⁻⁶ cm/s
- ΔH BRD3 BD1 WT (BRD3 BD1 WT [18]; ITC): -8.8 kcal/mol
- N BRD3 BD1 WT (BRD3 BD1 WT [18]; ITC stoichiometry): 0.81
- Kd (BRD3 BD1 WT [18]; ITC): 1600 nM
- IC50 (BRDT BD2 WT): 7940 nM
- ΔH BRD3 BD2 L/V (BRD3 BD2 L/V [19]): -12.9 kcal/mol
- Kd (BRD3 BD2 L/V [19]): 130 nM
- IC50 (BRD3 BD2 L/V [20]): 79.4 nM

Structure (SMILES): CCNC(=O)[C@H](CC)[C@@H]1N=C(c2ccc(Cl)cc2)c2cc(OC)ccc2-n2c(C)nnc21 (relative stereo) [Compound 17]
- binding to any WT BET bromodomain ([1]; ITC): no detectable binding
- ITC pKd ± SD WT [1]: <4.2
- IC50 (BRD2 BD1 WT [21]): 63100 nM
- half-life at 50 µM (in vitro [2]): > 3 h
- Kd (BRD4 BD1 WT [22]): > 60000 nM
- IC50 (BRD2 BD2 L/V [23]): 1260 nM
- Kd (BRD3 BD2 WT [3]; ITC): > 60000 nM
- AlphaLISA pIC50 ± SD WT [4]: 4.4 ± 0.1
- IC50 (BRD4 BD2 L/V [24]): 2000 nM
- Kd (BRD2 BD2 WT [5]; ITC): > 60000 nM
- ΔH BRD4 BD1 L/V (BRD4 BD1 L/V [25]; ITC): -5.9 kcal/mol
- N BRD4 BD1 L/V (BRD4 BD1 L/V [25]; ITC stoichiometry): 0.99
- Kd (BRD4 BD1 L/V [25]; ITC, 30°C, read-out: Kd BRD4 BD1 L/V): 1600 nM
- IC50 (BRD4 BD1 WT [26]): 50100 nM
- ΔH BRD2 BD1 L/V (BRD2 BD1 L/V [6]): -10.2 kcal/mol
- N BRD2 BD1 L/V (BRD2 BD1 L/V [6]; ITC stoichiometry): 0.97
- Kd (BRD2 BD1 L/V [6]): 960 nM
- IC50 (BRD3 BD1 L/V [7]): 501 nM
- IC50 (BRD3 BD2 WT [8]): 39800 nM
- ITC pKd ± SD Δ [9]: >1.8 ± 0.2
- ITC pKd ± SD L/V ([9]; mean and SD of all somatic bromodomains): 6.0 ± 0.2
- Kd (BRD2 BD1 WT [10]; ITC): > 60000 nM
- IC50 (BRD4 BD2 WT [27]): 63100 nM
- IC50 (BRDT BD2 L/V): 5010 nM
- IC50 (BRD3 BD1 WT [11]): 31600 nM
- IC50 (BRDT BD1 WT): 63100 nM
- ΔH BRD4 BD2 L/V (BRD4 BD2 L/V [28]; ITC): -3.7 kcal/mol
- N BRD4 BD2 L/V (BRD4 BD2 L/V [28]; ITC stoichiometry): 0.99
- Kd (BRD4 BD2 L/V [28]; ITC, 30°C, read-out: Kd BRD4 BD2 L/V): 1000 nM
- ΔH BRD3 BD1 L/V (BRD3 BD1 L/V [12]): -9.4 kcal/mol
- N BRD3 BD1 L/V (BRD3 BD1 L/V [12]; ITC stoichiometry): 1.07
- Kd (BRD3 BD1 L/V [12]): 740 nM
- ΔH BRD2 BD2 L/V (BRD2 BD2 L/V [13]): -5.3 kcal/mol
- N BRD2 BD2 L/V (BRD2 BD2 L/V [13]; ITC stoichiometry): 0.94
- Kd (BRD2 BD2 L/V [13]): 1300 nM
- AlphaLISA pIC50 ± SD Δ [14]: 1.5 ± 0.2
- AlphaLISA pIC50 ± SD L/V ([14]; mean and SD of all somatic bromodomains, active enantiomer concentration): 5.9 ± 0.3
- IC50 (BRD4 BD1 L/V [29]): 2000 nM
- IC50 (BRD2 BD1 L/V [15]): 3160 nM
- IC50 (BRD2 BD2 WT [16]): 25100 nM
- Kd (BRD4 BD2 WT [30]): > 60000 nM
- Papp (in vitro [17]): 4.5 ×10⁻⁶ cm/s
- Kd (BRD3 BD1 WT [18]; ITC): > 60000 nM
- IC50 (BRDT BD2 WT): 79400 nM
- ΔH BRD3 BD2 L/V (BRD3 BD2 L/V [19]): -4.7 kcal/mol
- N BRD3 BD2 L/V (BRD3 BD2 L/V [19]; ITC stoichiometry): 0.68
- Kd (BRD3 BD2 L/V [19]): 610 ± 90 nM
- IC50 (BRD3 BD2 L/V [20]): 794 nM
